Assay results as given in PMC6934184, “Selective DNA-PKcs inhibition extends the therapeutic index of localized radiotherapy and chemotherapy” (The Journal of Clinical Investigation, 2019).

Target: T1, JAK1 (Homo sapiens, UniProt P23458)
T1 construct: purchased Thermo Fisher Scientific (Life Technologies) SelectScreen
Experiment: SelectScreen Z'LYTE
Assay type: biochemical
In short: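 SelectScreen broad panel; activity (Z'LYTE, Adapta) plus binding formats. ATP: Km app for CSF1R Z'LYTE; 10 for CAMK1 Adapta. Readout = % per kinase.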

T1 sequence (P23458 whole entry): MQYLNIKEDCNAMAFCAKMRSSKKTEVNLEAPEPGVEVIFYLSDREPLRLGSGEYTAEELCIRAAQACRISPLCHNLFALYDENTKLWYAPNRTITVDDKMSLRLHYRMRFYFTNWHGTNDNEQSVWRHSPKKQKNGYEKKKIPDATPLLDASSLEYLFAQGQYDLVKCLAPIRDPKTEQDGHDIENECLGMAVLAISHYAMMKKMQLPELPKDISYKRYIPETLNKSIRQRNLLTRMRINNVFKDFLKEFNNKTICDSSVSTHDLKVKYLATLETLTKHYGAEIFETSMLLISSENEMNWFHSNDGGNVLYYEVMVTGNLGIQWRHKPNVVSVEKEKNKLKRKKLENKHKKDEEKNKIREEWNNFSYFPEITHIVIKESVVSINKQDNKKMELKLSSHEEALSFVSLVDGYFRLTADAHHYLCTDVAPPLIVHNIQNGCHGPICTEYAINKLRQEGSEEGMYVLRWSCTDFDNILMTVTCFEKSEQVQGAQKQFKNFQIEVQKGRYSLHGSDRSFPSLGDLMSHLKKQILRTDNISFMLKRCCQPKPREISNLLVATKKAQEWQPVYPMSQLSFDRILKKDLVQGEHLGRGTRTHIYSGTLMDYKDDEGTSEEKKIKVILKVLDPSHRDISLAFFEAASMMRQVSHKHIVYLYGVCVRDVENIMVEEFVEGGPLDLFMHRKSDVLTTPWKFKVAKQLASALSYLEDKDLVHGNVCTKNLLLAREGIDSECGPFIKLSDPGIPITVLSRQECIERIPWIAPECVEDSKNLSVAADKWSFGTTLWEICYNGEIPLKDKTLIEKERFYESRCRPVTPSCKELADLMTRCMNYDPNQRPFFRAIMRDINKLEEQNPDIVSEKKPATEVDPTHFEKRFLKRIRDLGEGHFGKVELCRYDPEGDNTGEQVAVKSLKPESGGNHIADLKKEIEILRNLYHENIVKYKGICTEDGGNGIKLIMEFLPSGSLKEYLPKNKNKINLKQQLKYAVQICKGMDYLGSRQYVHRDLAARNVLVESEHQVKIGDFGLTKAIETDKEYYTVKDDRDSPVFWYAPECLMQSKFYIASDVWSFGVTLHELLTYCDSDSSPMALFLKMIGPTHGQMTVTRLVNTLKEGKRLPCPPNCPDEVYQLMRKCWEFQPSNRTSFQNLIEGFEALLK

`CN(C(=O)CN1CCOCC1)c1ccc2sc3c(-c4cccc5c(=O)cc(N6CC7CCC(C6)O7)oc45)cccc3c2c1` [NU5455] was tested, and the inhibition at 1 µM was -5.7%.
